Measurements published in patent publication US11845760B2, “PRMT5 inhibitors” (AMGEN INC., priority 2020, dated 2023).
Where two headings read alike, the source gives them in different places.

Columns and labels:
HCT116 MTAP null cells = test: HCT116 MTAP null cell line proliferation (CellTiter-Glo cell viability, 6 days); type: cell-based; details: HCT116 MTAP null cells, 6 days of treatment, CellTiter-Glo cell viability, read-out: HCT-116 MTAP null IC50
Method in brief: (§1)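 Viability by CellTiter-Glo after 6 days' drug exposure in wild-type HCT116 and its MTAP-null knockout, with DMSO-only control. Dosing used either 1:3 steps (top 1 or 10 μM) or 22 points in 1:2 steps (top 10 or 50 μM). IC50 taken where the fitted curve crosses 50% of control.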

HCT116 WT cells = test: HCT116 WT cell line proliferation (CellTiter-Glo cell viability, 6 days); type: cell-based; details: HCT116 WT (parent) cells, 6 days of treatment, CellTiter-Glo cell viability, read-out: HCT-116 WT IC50
Method in brief: as §1

Row | IC50 (HCT116 MTAP null cells; HCT116-MTAP null, 144 h) | IC50 (HCT116 WT cells; Homo sapiens, HCT-116, 144 h) | IC50 (HCT116 MTAP null cells) | IC50 (HCT116 WT cells) | Structure (SMILES)
1 | 0.352 µM | 14 µM | – | – | Nc1nc2cnc(C(=O)N3CCOCC3c3ccc(C(F)(F)F)cn3)cc2c2c1COC2 (racemic) [Example 494, (4-amino-1,3-dihydrofuro[3,4-c][1,7]naphthyridin-8-yl)-[rac-(3S)-3-[5-(trifluoromethyl)-2-pyridyl]morpholin-4-yl]methanone]
2 | 0.062 µM | 1.95 µM | – | – | Nc1nc2cc(Cl)c(C(=O)N3CCOCC3c3ccc(F)c(OC(F)(F)F)c3)cc2c2c1COC2 (racemic) [Example 346, (4-amino-7-chloro-1,3-dihydrofuro[3,4-c]quinolin-8-yl)((3R)-3-(4-fluoro-3-(trifluoromethoxy)phenyl)-4-morpholinyl)methanone and (4-amino-7-chloro-1,3-dihydrofuro[3,4-c]quinolin-8-yl)((3S)-3-(4-fluoro-3-(trifluoromethoxy)phenyl)-4-morpholinyl)methanone]
3 | 0.872 µM | 9.76 µM | – | – | Nc1nc2cnc(C(=O)N3CCOC[C@@H]3c3ccc(C(F)(F)F)cc3)cc2c2c1CCO2 [Example 404, (4-amino-2,3-dihydrofuro[3,2-c][1,7]naphthyridin-8-yl)((3S)-3-(4-(trifluoromethyl)phenyl)-4-morpholinyl)methanone]
4 | > 10 µM | > 10 µM | – | – | CC(C)C[C@@H]1COC[C@H](c2ccc(C(F)(F)F)cc2)N1C(=O)c1cc2c3c(c(N)nc2cn1)COC3 (single isomer, unassigned) [Example 566]
5 | 0.183 µM | 6.57 µM | – | – | Nc1nc2ccc(C(=O)N3CCOC[C@@H]3c3ccc(Cl)cc3)cc2c2c1COC2 (single isomer, unassigned) [Example 581]
6 | 0.087 µM | 7.27 µM | – | – | Nc1nc2cnc(C(=O)N3CCOC[C@@H]3c3ccc(CC(F)(F)F)cc3)cc2c2c1COC2 (single isomer, unassigned) [Example 604]
7 | 0.015 µM | 0.606 µM | – | – | C[C@H]1COC[C@@H](c2ccc(OC(F)F)nn2)N1C(=O)c1cc2c3c(c(N)nc2cc1F)COC3 (racemic) [Example 314, (4-amino-7-fluoro-1,3-dihydrofuro[3,4-c]quinolin-8-yl)((3R,5S)-3-(6-(difluoromethoxy)-3-pyridazinyl)-5-methyl-4-morpholinyl)methanone and (4-amino-7-fluoro-1,3-dihydrofuro[3,4-c]quinolin-8-yl)((3S,5R)-3-(6-(difluoromethoxy)-3-pyridazinyl)-5-methyl-4-morpholinyl)methanone]
8 | 0.396 µM | 3.85 µM | – | – | Cn1ncc2c(N)nc3cc(C(F)(F)F)c(C(=O)N4CC[C@H](c5ccc(C(F)(F)F)cc5)C4)cc3c21 [Example 547, (4-amino-1-methyl-7-(trifluoromethyl)-1H-pyrazolo[4,3-c]quinolin-8-yl)((3R)-3-(4-(trifluoromethyl)phenyl)-1-pyrrolidinyl)methanone]
9 | – | – | 0.165 µM | 6.36 µM | C[C@@H]1COC[C@H](c2ccc(OC(F)F)c(F)c2)N1C(=O)c1cc2c3c(c(N)nc2cn1)COC3 (racemic) [Example 390, (4-amino-1,3-dihydrofuro[3,4-c][1,7]naphthyridin-8-yl)((3R,5S)-3-(4-(difluoromethoxy)-3-fluorophenyl)-5-methyl-4-morpholinyl)methanone and (4-amino-1,3-dihydrofuro[3,4-c][1,7]naphthyridin-8-yl)((3S,5R)-3-(4-(difluoromethoxy)-3-fluorophenyl)-5-methyl-4-morpholinyl)methanone]
10 | 0.031 µM | 1.43 µM | – | – | Cn1ncc2c(N)nc3cc(F)c(C(=O)N4CCOC[C@@H]4c4ccc(F)cc4)cc3c21 [Example 545, (4-amino-7-fluoro-1-methyl-1H-pyrazolo[4,3-c]quinolin-8-yl)((3S)-3-(4-fluorophenyl)-4-morpholinyl)methanone]
11 | 0.325 µM | 10.6 µM | – | – | Nc1nc2cnc(C(=O)N3CCOCC3c3ccc(CC(F)(F)F)cc3)cc2c2c1COC2 (racemic) [Example 509, (4-amino-1,3-dihydrofuro[3,4-c][1,7]naphthyridin-8-yl)((3R)-3-(4-(2,2,2-trifluoroethyl)phenyl)-4-morpholinyl)methanone and (4-amino-1,3-dihydrofuro[3,4-c][1,7]naphthyridin-8-yl)((3S)-3-(4-(2,2,2-trifluoroethyl)phenyl)-4-morpholinyl)methanone]
12 | 0.337 µM | 11.4 µM | – | – | C[C@H]1OCc2c1c(N)nc1ccc(C(=O)N3C[C@@H](c4ccccc4)[C@H](c4ccccc4)C3)cc21 (racemic) [Example 431, ((3R)-4-amino-3-methyl-1,3-dihydrofuro[3,4-c]quinolin-8-yl)((3R,4R)-3,4-diphenyl-1-pyrrolidinyl)methanone and ((3R)-4-amino-3-methyl-1,3-dihydrofuro[3,4-c]quinolin-8-yl)((3S,4S)-3,4-diphenyl-1-pyrrolidinyl)methanone]
13 | 0.394 µM | 12.9 µM | – | – | Nc1nc2cnc(C(=S)N3CCOC[C@@H]3c3ccc(C(F)(F)F)cc3)cc2c2c1COC2 [Example 626, (4-amino-1,3-dihydrofuro[3,4-c][1,7]naphthyridin-8-yl)((3S)-3-(4-(trifluoromethyl)phenyl)-4-morpholinyl)methanethione]
14 | 0.018 µM | 1.86 µM | – | – | Cn1ncc2c(N)nc3cc(Cl)c(C(=O)N4CCC(c5ccc(C(F)(F)F)cn5)C4)cc3c21 (racemic) [Example 543, (4-amino-7-chloro-1-methyl-1H-pyrazolo[4,3-c]quinolin-8-yl)((3R)-3-(5-(trifluoromethyl)-2-pyridinyl)-1-pyrrolidinyl)methanone and (4-amino-7-chloro-1-methyl-1H-pyrazolo[4,3-c]quinolin-8-yl)((3S)-3-(5-(trifluoromethyl)-2-pyridinyl)-1-pyrrolidinyl)methanone]
15 | 0.58 µM | > 10 µM | – | – | Nc1nc2cnc(C(=O)N3CCNC[C@@H]3c3ccc(C(F)(F)F)cc3)cc2c2c1COC2 (single isomer, unassigned) [Example 596, (4-amino-1,3-dihydrofuro[3,4-c][1,7]naphthyridin-8-yl)((2S)-2-(4-(trifluoromethyl)phenyl)-1-piperazinyl)methanone or (4-amino-1,3-dihydrofuro[3,4-c][1,7]naphthyridin-8-yl)((2R)-2-(4-(trifluoromethyl)phenyl)-1-piperazinyl)methanone]
16 | – | – | 0.344 µM | 5.02 µM | Nc1nc2cnc(C(=O)N3CCOCC3c3ccc(OC(F)(F)F)cc3F)cc2c2c1COC2 (racemic) [Example 386, (4-amino-1,3-dihydrofuro[3,4-c][1,7]naphthyridin-8-yl)((3R)-3-(2-fluoro-4-(trifluoromethoxy)phenyl)-4-morpholinyl)methanone and (4-amino-1,3-dihydrofuro[3,4-c][1,7]naphthyridin-8-yl)((3S)-3-(2-fluoro-4-(trifluoromethoxy)phenyl)-4-morpholinyl)methanone]
17 | 0.235 µM | 12.5 µM | – | – | Nc1nc2cc(Cl)c(C(=O)N3CCC(c4ccc(C(F)(F)F)cn4)C3)cc2c2c1COC2 (racemic) [Example 542, (4-amino-7-chloro-1,3-dihydrofuro[3,4-c]quinolin-8-yl)((3R)-3-(5-(trifluoromethyl)-2-pyridinyl)-1-pyrrolidinyl)methanone and (4-amino-7-chloro-1,3-dihydrofuro[3,4-c]quinolin-8-yl)((3S)-3-(5-(trifluoromethyl)-2-pyridinyl)-1-pyrrolidinyl)methanone]
18 | 0.927 µM | > 10 µM | – | – | C[C@@H]1OCc2c1c(N)nc1cnc(C(=O)N3[C@H](C)COC[C@@H]3c3ccc(OC(F)(F)F)cn3)cc21 (racemic) [Example 379, ((3S)-4-amino-3-methyl-1,3-dihydrofuro[3,4-c][1,7]naphthyridin-8-yl)((3R,5S)-3-methyl-5-(5-(trifluoromethoxy)-2-pyridinyl)-4-morpholinyl)methanone and ((3S)-4-amino-3-methyl-1,3-dihydrofuro[3,4-c][1,7]naphthyridin-8-yl)((3S,5R)-3-methyl-5-(5-(trifluoromethoxy)-2-pyridinyl)-4-morpholinyl)methanone]
19 | > 1 µM | > 10 µM | – | – | Nc1nc2ccc(C(=O)N3CCOC[C@H]3c3cccc(Cl)c3)cc2c2c1COC2 (single isomer, unassigned) [Example 578]
20 | 0.097 µM | 4.76 µM | – | – | Cn1ncc2c(N)nc3cnc(C(=O)N4CC[C@H](c5ccc(C(F)(F)F)cc5)C4)cc3c21 [Example 426, (4-amino-1-methyl-1H-pyrazolo[4,3-c][1,7]naphthyridin-8-yl)((3R)-3-(4-(trifluoromethyl)phenyl)-1-pyrrolidinyl)methanone]
21 | 0.416 µM | 4.21 µM | – | – | Nc1nc2cc(F)c(C(=O)N3CCOC[C@@H]3c3ccc(C(F)(F)F)cc3)cc2c2c1CCO2 [Example 407, (4-amino-7-fluoro-2,3-dihydrofuro[3,2-c]quinolin-8-yl)((3S)-3-(4-(trifluoromethyl)phenyl)-4-morpholinyl)methanone]
22 | 0.477 µM | 26 µM | – | – | Cn1ncc2c3cc(C(=O)N4CCOCC4c4ccc(C(F)(F)F)cc4)ccc3nc(N)c21 (racemic) [Example 497, (4-amino-3-methyl-3H-pyrazolo[3,4-c]quinolin-8-yl)((3R)-3-(4-(trifluoromethyl)phenyl)-4-morpholinyl)methanone and (4-amino-3-methyl-3H-pyrazolo[3,4-c]quinolin-8-yl)((3S)-3-(4-(trifluoromethyl)phenyl)-4-morpholinyl)methanone]
23 | – | – | 5.1 µM | > 10 µM | CC(C)(C)OC(=O)N1CCN(C(=O)c2cc3c4c(c(N)nc3cn2)COC4)[C@@H](c2ccc(C(F)(F)F)cc2)C1 (single isomer, unassigned) [Example 589]
